Here are results for eight molecules from patent US20180177845A1, “METHOD FOR TREATMENT OR PREVENTION OF A CANCER” (priority 2016, published 2018).

In one test the test system is β4 integrin at Tyr1526. As to the kind of experiment: Western blot of β4 integrin tyrosine phosphorylation in MDA-MB-231 cells. It is filed as cell-based, human. As to conditions: 10 μM. Here is the method: (§1) Various plasmid-transfected or pharmacologically treated cells or tissue samples were homogenized and extracted for Western blot analyses. About 10-20 μg whole cell lysate were used for Western blotting. A 1 mg/ml concentration of total protein from cell lysates was employed for immunoprecipitation. Some extracts subjected to immunoprecipitation were incubated with antibodies, as indicated, for 4 h at 4° C., followed by incubation for 4 h or overnight with protein A-Sepharose 4B or protein G-Sepharose beads (Sigma-Aldrich) before proceeding to Western blot analysis. Each experiment was repeated at least three independent times.
For orientation: A western blot detects proteins with antibodies after separation by electrophoresis.

Test [1] has as its system β4 integrin/FAK complex. As to the kind of experiment: immunoprecipitation of β4 integrin and FAK in HCT-116 cells. It is filed as cell-based, human. On the procedure:
(§2) Cells or tissue samples were homogenized and extracted for Western blotting. For immunoprecipitation, proteins were incubated with antibodies as indicated at 4° C. overnight, followed by incubation for 4 hrs with protein A-Sepharose 4B beads (Sigma-Aldrich). All experiments were conducted at least three independent times.

Test [2] relates to FAK autophosphorylation at Tyr397. As to the kind of experiment: Western blot of FAK autophosphorylation at Tyr397 in HCT-116 cells. The class given is cell-based, human. Here is the method:
as §2

Test [3] relates to β4 integrin/FAK complex. As to the kind of experiment: co-immunoprecipitation of β4 integrin and FAK in MDA-MB-231 cells. It is filed as cell-based, human. Here is the method:
as §1

Another test has as its system FAK phospho-Tyr397. Put plainly: Western blot of FAK phospho-Tyr397 in MDA-MB-231 cells. It is filed as cell-based, human. Here is the method:
as §1

The subject of test [4] is MDA-MB-231 cells. As to the kind of experiment: anchorage-independent growth in soft agar assay, MDA-MB-231. The class given is cell-based, human. As to conditions: in comparison with the TAT alone, peptide 10 μM or 50 μM. Here is the method:
Experiments were performed as previously described'^9, with the following modifications. A total of 5×10^4 cells were seeded in 0.3% agar in DMEM plus 10% […] and EGF (10 ng/ml) over the bottom 0.6% agar layer in DMEM. After incubation for 14 days, the number of colonies was scored.

Test [5] concerns HCT-116 cells. Put plainly: in vivo tumorigenicity, subcutaneous xenograft mouse model. As to conditions: ectopic expression in HCT-116 cells, subcutaneous in SCID mice; 21 days. Here is the method:
Here. FAK and FRNK transfectants were used as controls. […] All results are presented as the means ±s.d. from at least three independent experiments (*. p<0.05, compared with the corresponding mock control). […] An in vivo tumorigenicity assay was conducted using a xenograft mouse model by subcutaneously injecting cells described above into SCID mice. Mice were sacrificed 21 days after tumor injection. Tumor mass (left, top), protein expression (left, bottom), and tumor weight (right) of the xenografts were measured. Five mice were assessed for each group (Scale bar, 1 cm. *, p<0.05, compared with the corresponding mock control).

The subject of test [6] is MDA-MB-231 cells. Put plainly: in vivo lung metastasis after tail vein injection, bioluminescence. Also noted: species or system nude mice. As to conditions: MDA-MB-231 transfectants, 84 days after injection, vs mock and triple mutant. Here is the method:
(§3) All mouse experiments were approved by the Institutional Animal Care and Use Committee, National Taiwan University (Taipei, Taiwan). All experimental procedures were performed in accordance with the protocols and the ethical regulations approved by the Institutional Animal Care and Use Committees of National Taiwan University (Taipei, Taiwan). Female nu/nu mice were purchased from the National Laboratory Animal Center (Taipei, Taiwan). For tumorigenesis, 1×10^6 MDA-MB-231 stably transfected pools expressing GFP-tagged FAK/25aa, its triple (FAK/25aa^E380A/K381A/Q382A)or double (FAK/25aa^R385A/S386A) mutant, or a mock transfected control that had been selected by 500 μg/ml G418 for 2 weeks were injected into the 3rd mammary fat pad of eight-week-old female nu/nu mice. Stably transfected pools of each construct were injected in 100 μl PBS. Tumor volumes and numbers were measured at 12 weeks after injection and then excised, photographed, and weighted. For tumor metastasis, 1×10^6 MDA-MB-231 cells, described above, that were labeled with luciferase by lentiviral infection were resuspended in 100 μl PBS and injected into the tail vein of six-week-old female nu/nu mice. Lung metastasis was monitored by bioluminescent imaging using an IVIS spectrum imaging system. Lung metastasis was measured on the respective day after injection.

The test system of another test is NIH3T3. As to the kind of experiment: specificity: β1 integrin-mediated cell migration in NIH3T3. As to conditions: overexpressed in NIH3T3. The class given is cell-based, mouse.
For the next test, the system named is paxillin/FAK complex. As to the kind of experiment: specificity: paxillin/FAK complex in NIH3T3. It is filed as cell-based, mouse. As to conditions: overexpressed in NIH3T3.
Test [7] concerns HCT-116 cells. As to the kind of experiment: BrdU incorporation assay, HCT-116. As to conditions: HCT-116 cells overexpressing the peptide. The class given is cell-based, human. Here is the method: A BrdU incorporation assay was performed. Briefly, serum-starved cells were incubated in DMEM with 10% FBS and 100 μM BrdU (Sigma-Aldrich) for 16 hrs. Cells were fixed, permeabilized, treated with DNase I, and processed for immunofluorescence staining with anti-BrdU (Sigma-Aldrich) antibody. The BrdU-positive staining cells were scored.

The subject of test [8] is MDA-MB-231 cells. Put plainly: in vivo tumorigenesis, orthotopic injection into mammary fat pad. As to conditions: stably expressing MDA-MB-231 cells in mammary fat pad of nude mice; 12 weeks. On the procedure: as §3
Test [9] has as its system MDA-MB-231 cells. As to the kind of experiment: BrdU incorporation cell proliferation assay, MDA-MB-231. The class given is cell-based, human. As to conditions: MDA-MB-231 transfectants; compared to mock and triple-mutant cells. On the procedure:
At 24 h after transfection, 2×10^4 cells were serum starved for 24 h. Cells were then washed twice with DMEM and incubated for 16 h in DMEM plus 10% FBS and 100 μM BrdU (Sigma-Aldrich). After that, cells were fixed, permeabilized, heated with DNase I, and processed for immunofluorescence staining, with anti-BrdU (1:200, Sigma-Aldrich) antibody, as described previously^39, with a few modifications. Cells were then counted in multiple fields and scored for BrdU-positive staining in each independent experiment.
(In general: Incorporation of labelled thymidine or its analogues reports DNA synthesis.)

Test [10] deals with HCT-116 cells. As to the kind of experiment: anchorage-independent growth assay, HCT-116. The class given is cell-based, human. Here is the method: An anchorage-independent growth assay was conducted with several modifications. Briefly, 5×10^4 cells were seeded in a 0.3% agar in DMEM containing 10% FBS over the bottom 0.6% agar layer in DIVIEM. After incubation for 14 days, the number and size of colonies were scored.

Test [11] addresses T1, β4 integrin (human, UniProt P16144 28-1822, limits assumed).
T1 construct: Endogenous full-length β4 integrin in lysates or immunoprecipitates; In cells it is paired with α6 integrin; also called integrin β4; ITGB4
Put plainly: Ni-bead pull-down from MDA-MB-231 lysate, anti-β4 integrin Western blot (FIG. 1(g)).

Test [12] addresses T1, β4 integrin. As to the kind of experiment: GST pull-down from HCT-116 lysate, anti-β4 integrin Western blot (FIG. 9(C)).
Test [13] deals with T2, focal adhesion kinase (FAK) (human, UniProt Q05397 2-1052).
T2 construct: Endogenous FAK in lysates of human cells and tissues; also called full-length FAK; FAX [sic]
Put plainly: HA-tagged β4 fragments in HEK-293 cells (FIG. 9F).

Test [14] addresses T1, β4 integrin. Put plainly: overexpression in HCT-116 cells.

Where no end group is shown, it is not given here.

T1 sequence (P16144 28-1822 limits assumed): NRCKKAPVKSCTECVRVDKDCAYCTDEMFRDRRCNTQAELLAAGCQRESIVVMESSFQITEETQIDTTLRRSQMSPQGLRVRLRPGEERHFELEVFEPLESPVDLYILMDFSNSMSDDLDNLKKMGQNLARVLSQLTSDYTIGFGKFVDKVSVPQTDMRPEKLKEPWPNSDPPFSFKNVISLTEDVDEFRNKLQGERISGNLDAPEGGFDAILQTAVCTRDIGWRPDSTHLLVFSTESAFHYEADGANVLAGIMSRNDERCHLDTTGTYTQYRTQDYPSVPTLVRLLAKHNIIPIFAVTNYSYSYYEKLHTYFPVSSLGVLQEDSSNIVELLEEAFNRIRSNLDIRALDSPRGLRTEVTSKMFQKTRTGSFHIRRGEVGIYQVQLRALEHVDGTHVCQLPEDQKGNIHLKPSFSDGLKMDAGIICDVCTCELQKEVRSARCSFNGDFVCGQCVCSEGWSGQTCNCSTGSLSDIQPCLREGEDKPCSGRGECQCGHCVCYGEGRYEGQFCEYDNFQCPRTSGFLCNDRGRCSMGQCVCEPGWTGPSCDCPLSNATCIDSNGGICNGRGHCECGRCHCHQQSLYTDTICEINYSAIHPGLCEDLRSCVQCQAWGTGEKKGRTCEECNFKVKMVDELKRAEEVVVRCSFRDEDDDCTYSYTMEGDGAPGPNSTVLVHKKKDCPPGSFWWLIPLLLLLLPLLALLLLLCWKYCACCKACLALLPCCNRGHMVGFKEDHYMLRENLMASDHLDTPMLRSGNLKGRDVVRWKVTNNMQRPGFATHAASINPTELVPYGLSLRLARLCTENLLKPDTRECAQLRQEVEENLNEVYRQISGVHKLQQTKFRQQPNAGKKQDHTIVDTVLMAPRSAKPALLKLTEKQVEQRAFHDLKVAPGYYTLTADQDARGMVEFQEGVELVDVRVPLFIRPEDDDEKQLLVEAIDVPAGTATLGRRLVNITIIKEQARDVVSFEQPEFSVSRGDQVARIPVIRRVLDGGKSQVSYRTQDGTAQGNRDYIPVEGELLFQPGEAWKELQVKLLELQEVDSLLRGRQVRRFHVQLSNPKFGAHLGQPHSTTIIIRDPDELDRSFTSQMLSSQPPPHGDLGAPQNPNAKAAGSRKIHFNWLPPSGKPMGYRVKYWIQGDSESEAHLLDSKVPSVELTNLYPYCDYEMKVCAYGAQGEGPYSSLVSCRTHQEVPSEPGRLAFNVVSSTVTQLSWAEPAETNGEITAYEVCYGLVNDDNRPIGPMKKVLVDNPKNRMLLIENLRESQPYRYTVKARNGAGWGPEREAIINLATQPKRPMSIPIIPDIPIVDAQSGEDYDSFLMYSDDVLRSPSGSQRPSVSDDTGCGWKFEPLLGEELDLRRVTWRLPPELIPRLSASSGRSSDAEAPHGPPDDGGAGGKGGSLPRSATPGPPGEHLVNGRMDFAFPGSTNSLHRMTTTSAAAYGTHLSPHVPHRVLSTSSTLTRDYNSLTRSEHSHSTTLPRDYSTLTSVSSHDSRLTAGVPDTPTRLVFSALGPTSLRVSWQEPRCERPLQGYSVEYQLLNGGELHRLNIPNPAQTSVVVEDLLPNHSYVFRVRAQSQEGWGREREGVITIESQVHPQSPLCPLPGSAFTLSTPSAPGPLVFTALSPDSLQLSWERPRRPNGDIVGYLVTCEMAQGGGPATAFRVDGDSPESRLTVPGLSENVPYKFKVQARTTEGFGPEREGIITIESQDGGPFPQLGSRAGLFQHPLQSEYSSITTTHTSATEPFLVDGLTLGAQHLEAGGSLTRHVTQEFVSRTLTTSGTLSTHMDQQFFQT
Chain of paxillin/FAK complex (Q8VI36 whole entry): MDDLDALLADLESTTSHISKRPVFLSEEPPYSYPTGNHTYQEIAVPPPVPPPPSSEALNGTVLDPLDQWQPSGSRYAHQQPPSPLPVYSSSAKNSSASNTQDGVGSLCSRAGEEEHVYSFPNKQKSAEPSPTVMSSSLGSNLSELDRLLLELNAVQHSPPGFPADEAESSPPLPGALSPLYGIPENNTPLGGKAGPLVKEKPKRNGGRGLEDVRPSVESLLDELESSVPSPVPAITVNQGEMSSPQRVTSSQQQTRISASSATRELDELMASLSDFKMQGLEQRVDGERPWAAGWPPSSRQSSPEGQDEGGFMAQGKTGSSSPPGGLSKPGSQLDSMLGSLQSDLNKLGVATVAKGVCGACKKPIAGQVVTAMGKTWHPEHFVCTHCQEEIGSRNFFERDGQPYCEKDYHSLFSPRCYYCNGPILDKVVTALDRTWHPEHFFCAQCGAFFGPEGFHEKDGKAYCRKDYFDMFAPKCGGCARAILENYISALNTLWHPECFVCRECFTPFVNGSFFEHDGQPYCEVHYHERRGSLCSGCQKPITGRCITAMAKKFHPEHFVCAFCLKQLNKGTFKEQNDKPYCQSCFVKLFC
Chain of paxillin/FAK complex (P34152 whole entry, further chain): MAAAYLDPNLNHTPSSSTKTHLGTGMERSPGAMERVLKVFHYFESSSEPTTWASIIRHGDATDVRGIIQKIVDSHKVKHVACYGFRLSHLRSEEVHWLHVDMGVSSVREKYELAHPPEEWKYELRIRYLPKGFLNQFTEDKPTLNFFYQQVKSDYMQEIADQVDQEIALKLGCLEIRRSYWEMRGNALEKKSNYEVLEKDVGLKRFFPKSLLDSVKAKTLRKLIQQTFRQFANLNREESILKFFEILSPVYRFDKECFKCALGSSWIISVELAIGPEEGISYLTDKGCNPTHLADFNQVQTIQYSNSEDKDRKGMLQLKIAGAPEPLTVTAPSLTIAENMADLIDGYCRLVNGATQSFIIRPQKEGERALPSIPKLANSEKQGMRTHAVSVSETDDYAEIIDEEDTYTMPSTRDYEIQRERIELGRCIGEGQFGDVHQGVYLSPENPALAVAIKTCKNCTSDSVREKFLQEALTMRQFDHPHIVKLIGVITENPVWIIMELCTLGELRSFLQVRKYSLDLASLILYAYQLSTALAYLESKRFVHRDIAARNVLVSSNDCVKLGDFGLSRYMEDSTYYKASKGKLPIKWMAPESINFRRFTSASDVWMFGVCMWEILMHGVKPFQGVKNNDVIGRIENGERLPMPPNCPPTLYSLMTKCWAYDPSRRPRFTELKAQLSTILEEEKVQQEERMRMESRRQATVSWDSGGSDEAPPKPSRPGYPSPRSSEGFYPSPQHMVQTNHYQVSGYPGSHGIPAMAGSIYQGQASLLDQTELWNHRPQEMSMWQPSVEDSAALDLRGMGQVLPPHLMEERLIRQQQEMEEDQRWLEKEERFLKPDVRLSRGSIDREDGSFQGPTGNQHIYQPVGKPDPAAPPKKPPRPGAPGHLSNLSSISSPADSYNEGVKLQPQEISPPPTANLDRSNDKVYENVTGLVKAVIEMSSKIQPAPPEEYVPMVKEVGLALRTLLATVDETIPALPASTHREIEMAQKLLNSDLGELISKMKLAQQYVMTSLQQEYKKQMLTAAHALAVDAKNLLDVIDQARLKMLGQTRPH
T2 sequence (Q05397 2-1052 limits assumed): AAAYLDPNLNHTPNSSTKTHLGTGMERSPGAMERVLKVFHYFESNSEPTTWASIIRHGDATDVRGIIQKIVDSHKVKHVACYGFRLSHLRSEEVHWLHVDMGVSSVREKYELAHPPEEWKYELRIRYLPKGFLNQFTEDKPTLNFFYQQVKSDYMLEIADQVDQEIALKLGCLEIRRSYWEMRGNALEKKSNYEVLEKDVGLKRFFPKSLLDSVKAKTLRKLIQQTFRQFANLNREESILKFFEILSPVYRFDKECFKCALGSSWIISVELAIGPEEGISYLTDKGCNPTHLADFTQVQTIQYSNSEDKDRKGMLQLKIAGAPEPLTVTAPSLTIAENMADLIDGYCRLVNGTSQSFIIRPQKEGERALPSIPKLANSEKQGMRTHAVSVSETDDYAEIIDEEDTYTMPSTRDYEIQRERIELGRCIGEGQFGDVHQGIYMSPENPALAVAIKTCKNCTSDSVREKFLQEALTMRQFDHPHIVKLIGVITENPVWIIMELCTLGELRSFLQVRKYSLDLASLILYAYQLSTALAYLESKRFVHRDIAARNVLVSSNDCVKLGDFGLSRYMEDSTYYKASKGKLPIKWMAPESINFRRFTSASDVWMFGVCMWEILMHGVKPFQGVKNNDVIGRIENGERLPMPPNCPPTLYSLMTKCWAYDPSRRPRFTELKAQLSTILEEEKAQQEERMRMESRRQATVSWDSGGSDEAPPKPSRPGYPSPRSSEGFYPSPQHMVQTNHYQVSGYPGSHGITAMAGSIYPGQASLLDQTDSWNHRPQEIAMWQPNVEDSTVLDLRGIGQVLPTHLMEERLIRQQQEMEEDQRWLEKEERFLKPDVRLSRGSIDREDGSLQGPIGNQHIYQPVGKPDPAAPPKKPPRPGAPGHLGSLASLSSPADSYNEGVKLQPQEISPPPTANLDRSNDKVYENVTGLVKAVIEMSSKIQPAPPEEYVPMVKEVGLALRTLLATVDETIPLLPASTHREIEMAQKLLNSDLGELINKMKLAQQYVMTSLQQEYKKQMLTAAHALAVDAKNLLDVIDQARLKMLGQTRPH

With `CC(C)(C)n1nc(-c2ccc(Cl)cc2)c2c(N)ncnc21` [PP2], the “phosphorylation level of β4 integrin at Tyr1526” value in the test with β4 integrin at Tyr1526 is “reduced”. The “β4 integrin and FAK association in response to EGF stimulation” value with β4 integrin/FAK complex [1] (EGF stimulation) is on record as “ablated”. The “β4 integrin/FAK complex formation” value in the test with β4 integrin/FAK complex [1] (blockade of Src activity) is given as “decrease”. The “FAK activation in response to EGF stimulation” value in test [2] (HCT-116 cells, EGF stimulation) is on record as “ablated”. For the same molecule, the FAK activation entry in test [2] (HCT-116 cells, blockade of Src activity) is “alleviate”. Moreover, the “formation of the β4 integrin/FAK complex” value in the test with β4 integrin/FAK complex [3] (MDA-MB-231 cells, 10 μM, compared to PP3- or DMSO-treated cells) is listed as “markedly reduced”. The “interaction between β4 integrin and FAK under EGF stimulation” value with β4 integrin/FAK complex [3] (serum-starved MDA-MB-231 cells, EGF 10 ng/ml, inhibitor 10 μM) is “remained absent”. Moreover, the “phosphorylation level of FAK at Tyr397” value with FAK phospho-Tyr397 (MDA-MB-231 cells, 10 μM) was “reduced”.
Turning to “TAT-FAK/25aa: synthesized peptide, FAK/25aa fused with the TAT peptide; sequence GRKKRRQRRRPQLANNEKQGVRSHTVSVSETDDYAE1 (GRKKRRQRRRPQLANNEKQGVRSHTVSVSETDDYAEI)”, the “formation of the β4 integrin/FAK complex” value in the test on β4 integrin/FAK complex [3] (MDA-MB-231 cells, extracellular administration of peptide (10 μM)) is reported as “capable of alleviating”. Moreover, the “foci less formed in soft agar” value in the test on MDA-MB-231 cells [4] is recorded as “approximately 30%”.
Consider “FAK/25aa: the 376th to 400th amino acids of FAK, SEQ ID NO: 3; overexpressed GFP-tagged in cells (LANNEKQGVRSHTVSVSETDDYAEI; also: GFP tag)”, for which the “interaction between β4 integrin and FAK” value in the test with β4 integrin/FAK complex [1] (overexpressed motif) was “ablated”. In the test with HCT-116 cells [5], the “volume and weight of implanted colon cancer tumors” value was “significantly reduced”. Moreover, the “Tyr397-autophosphorylation of FAK” value in test [2] (transfected HCT-116 cells) is given as “diminished”. For the same molecule, the “level of FAK co-immunoprecipitated by β4 integrin” value with β4 integrin/FAK complex [3] (MDA-MB-231 cells, increased expression of the peptide) was “attenuated in a dose-dependent manner”. Besides, in the test with FAK phospho-Tyr397 (transfected MDA-MB-231 cells, in comparison to mock or triple-mutant transfectants), the “FAK phospho-Tyr397” value is recorded as “decreased”. Also, in the test on MDA-MB-231 cells [6], the lung metastatic nodules entry is recorded as “less-developed”. In addition, the “β1 integrin-mediated cell migration” value with NIH3T3 is “not affected”. Moreover, the paxillin/FAK complex entry in the test on paxillin/FAK complex is “not affected”. For the same molecule, the cell proliferation result is “impaired” in the test on HCT-116 cells [7] and “decreased” in the test on MDA-MB-231 cells [9]. Further, the “size and weight of tumors” value in the test with MDA-MB-231 cells [8] is given as “significant reductions”. Further, the anchorage-independent growth result in the test with HCT-116 cells [10] (HCT-116 transfectants, compared with mock and triple-mutant cells) is listed as “considerably decreased”.
On to `CS(=O)(=O)c1cccc(CNc2nc(Nc3ccc4c(c3)CCC(=O)N4)ncc2C(F)(F)F)c1` [PF-573,228, reference compound], for which the “β4 integrin/FAK complex formation” value in the test on β4 integrin/FAK complex [1] (FAK activity inhibited, 10 μM) is given as “still formed”. For the same molecule, the “anchorage-independent growth (soft agar)” value in the test with HCT-116 cells [10] (HCT-116 cells treated with FAK inhibitor, DMSO control) is given as “impairs”.

B1: His-tagged FAK/N375 (other)
chain: MAAAYLDPNLNHTPSSSAKTHLGTGMERSPGAMERVLKVFHYFENSSEPTTWASIIRHGDATDVRGIIQKIVDCHKVKNVACYGLRLSHLQSEEVHWLHLDMGVSNVREKFELAHPPEEWKYELRIRYLPKGFLNQFTEDKPTLNFFYQQVKNDYMLEIADQVDQEIALKLGCLEIRRSYGEMRGNALEKKSNYEVLEKDVGLRRFFPKSLLDSVKAKTLRKLIQQTFRQFANLNREESILKFFEILSPVYRFDKECFKCALGSSWIISVELAIGPEEGISYLTDKGANPTHLADFNQVQTIQYSNSEDKDRKGMLQLKIAGAPEPLTVTAPSLTIAENMADLIDGYCRLVNGATQSFIIRPQKEGERALPSIPK
notes: Recombinant protein from E. coli; not shown: His tag
On to B1, for which, in the test with β4 integrin [11], the binding result is on record as “no binding”.

B2: GST-FAK/N375 (other)
chain: B1 chain
notes: Recombinant protein from E. coli; not shown: GST of the pGEX-2T vector
For the molecule B2, the binding result with β4 integrin [12] is given as “no binding”.

B3: β4-CalX (other, UniProt P16144 979-1084, looked up)
chain: VNITIIKEQARDVVSFEQPEFSVSRGDQVARIPVIRRVLDGGKSQVSYRTQDGTAQGNRDYIPVEGELLFQPGEAWKELQVKLLELQEVDSLLRGRQVRRFHVQLS
notes: domain: Na+/Ca2+ exchanger homologous motif (CalX); also called β4 Na+/Ca2+ exchanger homologous motif; HA-tagged β4-CalX; not shown: HA tag of the pKH3 vector
As for B3, the binding result in [13] is reported as “no binding”.

B4: GFP-tagged FAK/25aa^R385A/S386A (peptide)
chain: LANNEKQGVAAHTVSVSETDDYAEI
modifications: also: GFP tag
notes: Positions are printed in full-length FAK numbering; also called double mutant of FAK/25aa; not shown: GFP of the pEGFP vector
For B4, the binding result with β4 integrin [14] is given as “binds”.
